Two molecules from patent publication US20250171418A1, “PARP1 INHIBITORS AND USES THEREOF” (XinThera, Inc., priority 2022, published 2025) can be followed below.

One data set deals with T1, BCRP (Homo sapiens, UniProt Q9UNQ0).
T1 construct: expressed in transfected cells; host or cells: MDCKII (Madin-Darby canine kidney) cells
T1 sequence (Q9UNQ0 1-655): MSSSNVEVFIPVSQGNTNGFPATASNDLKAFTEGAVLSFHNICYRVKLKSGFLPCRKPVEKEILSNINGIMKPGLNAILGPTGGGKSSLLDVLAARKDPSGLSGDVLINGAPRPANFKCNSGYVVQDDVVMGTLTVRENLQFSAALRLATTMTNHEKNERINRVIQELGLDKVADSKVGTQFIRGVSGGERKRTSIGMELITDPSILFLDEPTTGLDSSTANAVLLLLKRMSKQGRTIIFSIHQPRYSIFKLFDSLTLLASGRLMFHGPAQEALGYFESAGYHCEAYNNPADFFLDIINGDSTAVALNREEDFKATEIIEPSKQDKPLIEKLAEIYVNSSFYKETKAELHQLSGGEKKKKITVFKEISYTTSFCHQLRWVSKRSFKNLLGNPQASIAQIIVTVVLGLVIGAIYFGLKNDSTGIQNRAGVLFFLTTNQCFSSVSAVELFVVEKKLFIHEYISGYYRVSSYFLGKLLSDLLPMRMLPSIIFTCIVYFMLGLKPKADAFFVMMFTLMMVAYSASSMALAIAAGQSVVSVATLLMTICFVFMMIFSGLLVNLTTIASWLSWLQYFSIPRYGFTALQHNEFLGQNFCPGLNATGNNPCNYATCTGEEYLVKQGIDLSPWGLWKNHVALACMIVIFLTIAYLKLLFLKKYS
Put plainly: In vitro human transporter efflux, MDCKII cells expressing BCRP. It counts as in vitro ADME. The settings on record: for efflux ratio at 2 h, 10 μM: pH 7.4, Efflux ratio=Papp(B→A)/Papp(A→B); for Papp A→B at 2 h, 10 μM: pH 7.4, read-out: BCRP Papp AB; for Papp B→A at 2 h, 10 μM: pH 7.4, read-out: BCRP Papp BA. On the procedure: (§1) Madin-Darby canine kidney (MDCKII) cells expressing either MDR1 or BCRP were seeded onto Corning HTS Transwell® 96-well polycarbonate permeable (0.4 μm pore) supports at a density of 545,000 cells/cm2. Cells were incubated for 4-8 days prior to assay, and monolayer integrity was assessed by measuring transepithelial electrical resistance (TEER). […] The final organic solvent concentration was 0.5% (v/v). Bidirectional (apical-to-basolateral and basolateral-to-apical) flux of the test and reference compounds was determined over a 2-hour incubation at 37° C. and […] with a relative humidity of 95%. At the end of the incubation, samples from the apical and basolateral side were taken and then precipitated with acetonitrile containing internal standard. After centrifugation at 3200×g, supernatants were diluted 1:1 (v/v) with water and subjected to analysis via HPLC-MS/MS.
(§2) The apparent permeability (Papp, units of x 10-6 cm/s) was calculated using the following equation: […]
(§3) Where dQ/dt was the rate of drug transport (pmol/s), A was the surface area of the membrane (0.143 cm^2), and DO was the initial donor concentration (nM or pmol/cm3).
(§4) Efflux ratio=Papp(B→A)/Papp(A→B)
(§5) Where Papp(B→A) is the apparent permeability in the basolateral-to-apical direction, and Papp(A→B) is the apparent permeability in the apical-to-basolateral direction.

The target in a further data set is T2, MDR1 (Homo sapiens, UniProt P08183).
T2 construct: expressed in transfected cells; host or cells: MDCKII (Madin-Darby canine kidney) cells
T2 sequence (P08183 whole entry): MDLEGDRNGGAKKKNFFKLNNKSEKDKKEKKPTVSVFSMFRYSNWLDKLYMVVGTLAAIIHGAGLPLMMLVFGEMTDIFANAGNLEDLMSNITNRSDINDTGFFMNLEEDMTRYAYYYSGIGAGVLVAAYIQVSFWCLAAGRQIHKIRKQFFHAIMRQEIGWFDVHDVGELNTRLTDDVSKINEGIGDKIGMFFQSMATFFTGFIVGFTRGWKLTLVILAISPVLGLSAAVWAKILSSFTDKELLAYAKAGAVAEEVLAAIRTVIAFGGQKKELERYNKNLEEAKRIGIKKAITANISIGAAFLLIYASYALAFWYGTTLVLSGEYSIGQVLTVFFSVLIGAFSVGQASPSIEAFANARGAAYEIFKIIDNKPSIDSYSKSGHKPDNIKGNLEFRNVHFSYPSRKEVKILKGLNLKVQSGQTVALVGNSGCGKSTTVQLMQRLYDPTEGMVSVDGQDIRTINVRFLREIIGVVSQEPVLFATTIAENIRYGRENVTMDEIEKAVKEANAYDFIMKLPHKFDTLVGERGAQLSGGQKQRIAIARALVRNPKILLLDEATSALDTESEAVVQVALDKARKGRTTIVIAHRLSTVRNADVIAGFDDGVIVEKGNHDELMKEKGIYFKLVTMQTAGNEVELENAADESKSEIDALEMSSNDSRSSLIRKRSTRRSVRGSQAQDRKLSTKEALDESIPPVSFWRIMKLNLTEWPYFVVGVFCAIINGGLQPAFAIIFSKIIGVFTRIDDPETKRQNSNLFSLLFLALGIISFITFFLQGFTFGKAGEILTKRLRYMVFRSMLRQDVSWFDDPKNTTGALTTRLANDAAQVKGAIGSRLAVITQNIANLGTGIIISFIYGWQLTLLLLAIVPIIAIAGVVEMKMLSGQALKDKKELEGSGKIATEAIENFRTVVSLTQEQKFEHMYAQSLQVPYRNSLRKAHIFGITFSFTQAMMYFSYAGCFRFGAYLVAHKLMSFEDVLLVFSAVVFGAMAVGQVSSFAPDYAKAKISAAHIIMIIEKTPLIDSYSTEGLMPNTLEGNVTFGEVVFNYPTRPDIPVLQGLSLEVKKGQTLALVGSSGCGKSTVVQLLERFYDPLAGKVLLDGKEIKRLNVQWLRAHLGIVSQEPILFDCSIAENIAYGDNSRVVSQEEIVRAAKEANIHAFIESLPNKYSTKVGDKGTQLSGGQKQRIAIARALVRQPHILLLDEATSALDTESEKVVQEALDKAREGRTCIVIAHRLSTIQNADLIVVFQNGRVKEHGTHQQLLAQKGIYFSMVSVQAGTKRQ
The data set is described as follows: In vitro human transporter efflux, MDCKII cells expressing MDR1. It counts as in vitro ADME. Conditions: for efflux ratio at 2 h, 10 μM: MDCK-MDR1, pH 7.4, Efflux ratio=Papp(B→A)/Papp(A→B); for Papp A→B at 2 h, 10 μM: MDCK-MDR1, pH 7.4, read-out: MDCK-MDR1 Papp AB; for Papp B→A at 2 h, 10 μM: MDCK-MDR1, pH 7.4, read-out: MDCK-MDR1 Papp BA. How it is done: as §1, §2, §3, §4, §5

The nature of data set [1]: In vivo determination of rat Kp,uu. Conditions: brain and plasma, 1 mg/kg, male Sprague-Dawley rats, oral gavage, 0.1 mg/mL at 10 mL/kg, Kp*(fraction unbound in brain homogenate/fraction unbound in plasma). How it is done:
The equilibrium dialysis method was used to investigate the in vitro binding of test articles and reference compounds to plasma proteins. Plasma samples containing 5 μM test article or blank dialysis buffer solution (PBS, pH 7.4) were added to separate chambers of the dialysis wells of the High Throughput equilibrium Dialysis (HTD) device. The dialysis plate was sealed and placed in an incubator at 37° C. with 5% CO2 with shaking at approximately 100 rpm for 6 hours. All experiments were performed in duplicate. Ketoconazole (5 μM) was used as the reference compound. After incubation, the seal was removed, and 50 μL of post-dialysis samples were pipetted from both buffer and plasma chambers into fresh 96well plates. Samples were equimatrilyzed by either addition of blank plasma to buffer samples or the addition of blank buffer to plasma samples. […] The unbound fractions in plasma were calculated using the concentrations of test articles in buffer and plasma samples according to the following equation: […]
The equilibrium dialysis method was used to investigate the in vitro binding of test articles and reference compounds to rodent brain homogenate. […] The unbound fractions in diluted brain homogenate were calculated using the concentrations of test articles in buffer and homogenate samples according to the following equation: […]

Another data set addresses PARP1 (Homo sapiens, UniProt P09874). Put plainly: biochemical.
A further data set deals with DLD-1 BRCA2(−/−). Put plainly: Cell growth inhibition assay (CellTiter-Glo cell viability). Format: cell-based. Conditions: Homo sapiens, DLD-1, 168 h, DLD-1 BRCA2(−/−) cells, 7 days, CellTiter Glo 2.0. On the procedure: (§6) Cell proliferation was measured through the cell viability assay using DLD-1 BRCA2(−/−) and parental isogenic pair and MDA-MB-436 (mutated BRCA1) cell lines. The CellTiter-Glo (CTG) based cell viability assay is designed to determine the number of viable cells in the culture because of compound effect, by quantifying ATP, which indicates the presence of metabolically active cells.
(§7) DLD-1 BRCA2(−/−) and parental isogenic pair were cultured in RPMI 1640 supplemented with 10% fetal bovine serum (FBS), and MDA-MB-436 cells were cultured in DMEM supplemented with 10% FBS. Both were cultured at 37° C. with […]. Invention compounds were distributed to the 384 well plate (Corning, 3764) using Echo acoustic liquid handler to form a 1:3 serially diluted final concentration with top dose of 10 or 30 μM.
A general note: ATP-based viability assays read luminescence as a measure of living cells.

Data set [2] has as its system MDA-MB-436 (mutated BRCA1) cell lines. Described as above. Format: cell-based. The settings on record: Homo sapiens, 168 h; MDA-MB-436 cells, 7 days, CellTiter Glo 2.0. How it is done:
as §6, §7

PARP1, sequence (P09874 whole entry): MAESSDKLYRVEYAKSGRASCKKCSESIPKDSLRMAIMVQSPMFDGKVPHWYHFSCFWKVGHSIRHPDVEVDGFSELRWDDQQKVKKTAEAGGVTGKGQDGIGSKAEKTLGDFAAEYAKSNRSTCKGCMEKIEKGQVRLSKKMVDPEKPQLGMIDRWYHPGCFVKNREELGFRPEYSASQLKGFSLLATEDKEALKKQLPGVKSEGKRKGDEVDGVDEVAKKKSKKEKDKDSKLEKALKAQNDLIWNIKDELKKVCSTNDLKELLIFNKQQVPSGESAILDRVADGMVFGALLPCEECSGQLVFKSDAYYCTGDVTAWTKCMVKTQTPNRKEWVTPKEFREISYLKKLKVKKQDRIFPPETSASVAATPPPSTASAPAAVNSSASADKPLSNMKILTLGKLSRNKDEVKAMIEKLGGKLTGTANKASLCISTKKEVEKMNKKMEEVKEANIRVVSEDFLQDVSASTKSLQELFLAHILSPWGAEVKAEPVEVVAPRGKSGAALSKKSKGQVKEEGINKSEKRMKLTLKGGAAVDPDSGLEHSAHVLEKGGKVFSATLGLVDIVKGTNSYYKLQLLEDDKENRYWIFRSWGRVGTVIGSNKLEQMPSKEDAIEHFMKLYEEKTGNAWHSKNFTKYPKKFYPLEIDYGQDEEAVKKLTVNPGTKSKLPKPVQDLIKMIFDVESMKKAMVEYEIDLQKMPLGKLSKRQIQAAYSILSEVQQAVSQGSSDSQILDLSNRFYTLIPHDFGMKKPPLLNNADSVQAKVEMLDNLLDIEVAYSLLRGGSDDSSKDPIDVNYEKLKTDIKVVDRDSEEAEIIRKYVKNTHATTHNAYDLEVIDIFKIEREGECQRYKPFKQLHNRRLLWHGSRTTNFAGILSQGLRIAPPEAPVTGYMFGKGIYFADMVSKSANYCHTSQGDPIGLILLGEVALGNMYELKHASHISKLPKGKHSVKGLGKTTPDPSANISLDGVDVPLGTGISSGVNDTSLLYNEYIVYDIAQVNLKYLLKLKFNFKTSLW
Method for PARP1: The assay was performed utilizing the following method:
Compounds were dissolved in DMSO an Echo550 liquid handler was utilized to make serial dilations in the desired concentration range in Optiplate-384F plates. 100% DMSO was used for the high (with protein) and low (without protein) control samples. 20 nL of compound or DMSO alone was added to individual assay plate wells.
PARP1 and PARP2 protein were expressed, purified, and diluted in assay buffer containing 50 mM Tris pH 8.0, 0.001% Triton X-100, 10 mM MgCl2, 150 mM NaCl to a final concentration of 20 nM. The PARPi-FL was then added at a final concentration of 3 nM.
The assay plate was centrifuged at 1000 rpm for 1 min and incubated for 4 h at room temperature.
The fluorescent polarization was read using an Envision plate reader using the following settings: • Excitation filter—FITC FP 480-Ex Slot 3 • Emission filter—FITC FP P-pol 535-Em Slot 4 • 2nd Emission filter—FITC FP S-pol 535-Em Slot 3 • Mirror module—FITC FP Dual Enh-Slot 1
XLFit (equation 201) is used to calculate a reported IC50 for each compound.

Broadly, the efflux ratio is the permeability from basolateral to apical divided by that in the opposite direction, in the common usage. Usually IC50 stands for the concentration needed to halve the response being measured. Read a low IC50 as greater potency. One may read the EC50 as the midpoint of the concentration-response curve. Turning to `Cc1nc2ccc(CN3CCN(c4ccc(C(=O)NC5CC5)nc4F)CC3)c(F)c2[nH]c1=O` [Example 1, N-cyclopropyl-6-fluoro-5-{4-[(5-fluoro-2-methyl-3-oxo-4H-quinoxalin-6-yl)methyl]piperazin-1-yl}pyridine-2-carboxamide], on BCRP, the efflux ratio at 2 h, 10 μM is 0.94; the Papp A→B at 2 h, 10 μM amounted to 25.7 ×10⁻⁶ cm/s; the Papp B→A at 2 h, 10 μM came to 24.1 ×10⁻⁶ cm/s. Moreover, at MDR1, the efflux ratio at 2 h, 10 μM is 1.82; the Papp A→B at 2 h, 10 μM was determined as 16.5 ×10⁻⁶ cm/s; the Papp B→A at 2 h, 10 μM turned out to be 30 ×10⁻⁶ cm/s. The same molecule returned a Kp uu in data set [1] of 0.37. Also, the half-maximal inhibitory concentration (IC50) at PARP1 amounted to 4.5 nM. The molecule further gave an EC50 in the data set with DLD-1 BRCA2(−/−) of 3.7 nM. Further, in data set [2], the EC50 was 2.4 nM.
Take `Cc1nc2ccc(CN3CCN(c4ccc(C(=O)NCC(F)F)nc4F)CC3)c(F)c2[nH]c1=O` [Example 19]: the efflux ratio at 2 h, 10 μM at BCRP stood at 0.73; on MDR1, 0.87. Further, the Papp A→B at 2 h, 10 μM on BCRP stood at 28 ×10⁻⁶ cm/s; on MDR1, 20.9 ×10⁻⁶ cm/s. Besides, the Papp B→A at 2 h, 10 μM at BCRP was 20.2 ×10⁻⁶ cm/s; at MDR1 it was 18.2 ×10⁻⁶ cm/s. For the same molecule, half-maximal inhibition against PARP1 (IC50) required 18 nM. The results for the concentration giving a half-maximal response (EC50) (with DLD-1 BRCA2(−/−); in data set [2]) were 3.9 nM and 2.2 nM, respectively.
